These results are taken from patent EP4678634A1, “ANDROGEN RECEPTOR MODULATORS AND USES THEREOF” (Haihe Biopharma Co., Ltd., priority 2023, dated 2024).

For the test, the target named is T1, Androgen receptor (AR) (Homo sapiens, UniProt P10275).
T1 construct: expressed in transfected cells; host or cells: HEK293T (AR+ARE/Luc)
T1 sequence (P10275 1-920): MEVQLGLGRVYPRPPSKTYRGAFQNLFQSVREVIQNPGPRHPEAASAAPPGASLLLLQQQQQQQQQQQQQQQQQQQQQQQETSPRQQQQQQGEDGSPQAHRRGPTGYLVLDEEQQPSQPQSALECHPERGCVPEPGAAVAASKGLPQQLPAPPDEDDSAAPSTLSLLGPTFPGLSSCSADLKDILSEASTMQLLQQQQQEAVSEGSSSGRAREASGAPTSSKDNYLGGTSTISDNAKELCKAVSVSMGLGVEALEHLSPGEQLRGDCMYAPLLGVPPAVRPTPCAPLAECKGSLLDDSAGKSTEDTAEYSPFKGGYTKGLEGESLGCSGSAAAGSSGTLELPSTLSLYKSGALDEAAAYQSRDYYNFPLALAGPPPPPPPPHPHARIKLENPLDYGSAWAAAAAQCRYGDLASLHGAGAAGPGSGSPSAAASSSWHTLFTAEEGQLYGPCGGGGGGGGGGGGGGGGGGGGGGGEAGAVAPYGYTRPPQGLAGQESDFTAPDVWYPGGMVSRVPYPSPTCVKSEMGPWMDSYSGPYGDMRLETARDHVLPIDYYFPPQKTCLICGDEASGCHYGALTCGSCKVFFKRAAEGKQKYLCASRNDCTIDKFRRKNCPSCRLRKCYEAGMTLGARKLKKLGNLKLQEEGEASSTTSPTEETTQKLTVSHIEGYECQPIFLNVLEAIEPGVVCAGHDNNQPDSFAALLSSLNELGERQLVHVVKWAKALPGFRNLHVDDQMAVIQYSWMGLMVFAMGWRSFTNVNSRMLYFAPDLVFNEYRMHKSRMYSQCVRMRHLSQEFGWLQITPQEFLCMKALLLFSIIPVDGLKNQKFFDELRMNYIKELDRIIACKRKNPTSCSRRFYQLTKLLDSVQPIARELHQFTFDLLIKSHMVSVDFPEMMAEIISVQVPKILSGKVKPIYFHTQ
The test is described as follows: Androgen receptor (AR) reporter gene assay (luciferase). It counts as cell-based. Particulars: AR+ARE/Luc HEK293T cells, stimulated with 11-KDHT, 24h incubation, Bright-Lite luminescence; read-out: HEK293 Luc IC50. The procedure: Androgen receptor (AR) reporter gene assay
Experimental reagents: 11-Ketodihydrotestosterone (11-KDHT) was purchased from MCE (cat.HY-135794); Enzalutamide (MDV3100) was purchased from Selleck (cat.S1250); Bright-Lite Luciferase Assay kit was purchased from Vazyme (cat.DD1204-01);
• 1. dissolve the described compounds in 100% DMSO at a final concentration of 10 mM. 100 nL each of 400X compound to be tested and 400X 11-KDHT (40 nM) were added to a 384-well assay plate with Echo, followed by 20 µL of complete medium, and centrifuged at 1000 rpm for 1 min, and oscillated for 20-30 min at room temperature. • 2. 20 µL of AR+ARE/Luc HEK293T cells (10,000 cells/well) were inoculated into the assay plate containing the compounds and 11-KDHT, and centrifuged at 1000 rpm for 1 min. The assay plate was incubated in a 37 °C CO2 incubator for 24h. • 3. 40 µL of Bright-Lite assay reagent was transferred to each well of the assay plate, centrifuged at 1000 rpm for 1 min, and shaken for 2 min at room temperature protected from light. Luminescence values (RLU) were measured using Envision. Based on the results, the IC50 values of the compounds described were calculated. Table 1 HEK293-Luc% inhibition IC50 of representative compounds
(In general: In a reporter assay the amount or activity of a reporter protein is the signal.)
With `ClCCOc1c(Cl)cc2c(c1Cl)CCCN2c1ccc2[nH]ncc2n1` [HANT-165, 5,7-dichloro-6-(2-chloroethoxy)-1-(1H-pyrazolo[4,3-b]pyridin-5-yl)-1,2,3,4-tetrahydroquinoline], the IC50 is above 2000 nM.

With `ClCCOc1c(Cl)cc2c(c1Cl)CCCN2c1cnc2[nH]ncc2c1` [HANT-166, 5,7-dichloro-6-(2-chloroethoxy)-1-(1H-pyrazolo[3,4-b]pyridin-5-yl)-1,2,3,4-tetrahydroquinoline], the IC50 lay within 500 to 1000 nM.

Regarding `N#Cc1cc2c(c(Cl)c1OCCCl)CCCC2Nc1ccc(N2CCOCC2)nc1` (stereo not drawn) [HANT-170], the IC50 was in the range of 500 to 1000 nM.

With `N#Cc1cc2c(c(Cl)c1OCCC(F)(F)F)CCCC2c1cnc2[nH]ncc2c1` (stereo not drawn) [HANT-171], the IC50 was in the range of 1000 to 2000 nM.

`N#Cc1cc2c(c(Cl)c1OCCCl)CCCC2Nc1cccc2[nH]ncc12` (stereo not drawn) [HANT-173]: the IC50 is 1 to 500 nM.

On to `N#Cc1cc2c(c(Cl)c1OCCCl)CCCC2Nc1cc[nH]n1` (stereo not drawn) [HANT-175], for which the IC50 was 1000 to 2000 nM.

For the compound `CNC(=O)c1cc2c(c(Cl)c1OCCCl)CCCC2c1cnc2[nH]ncc2c1` (stereo not drawn) [HANT-183, 4-chloro-3-(2-chloroethoxy)-N-methyl-8-(1H-pyrazolo[3,4-b]pyridin-5-yl)-5,6,7,8-tetrahydrona phthalene-2-carboxamide], the IC50 was in the range of 1000 to 2000 nM.

Consider `NCc1cc2c(c(Cl)c1OCCCl)CCCC2c1cnc2[nH]ncc2c1` (stereo not drawn) [HANT-184], for which the IC50 fell in the range of 500 to 1000 nM.

Regarding `N#Cc1cc2c(c(Cl)c1OCCCl)CCCC2NC(=O)c1ccc2[nH]ncc2c1` (stereo not drawn) [HANT-186], the IC50 lay in the range of 1 to 500 nM.

As for `N#Cc1cc2c(c(Cl)c1OCCCl)CCCC2NC(=O)c1cn[nH]c1` (stereo not drawn) [HANT-187], the IC50 lay within 1 to 500 nM.

Turning to `N#Cc1cc2c(c(Cl)c1OCCCl)CCCC2NC(=O)c1cc[nH]n1` (stereo not drawn) [HANT-188], the half-maximal inhibitory concentration (IC50) fell in the range of 500 to 1000 nM.

In the case of `N#Cc1cc2c(c(Cl)c1OCCCl)CCCC2Nc1ccc2[nH]ncc2n1` (stereo not drawn) [HANT-191, 8-((1H-pyrazolo[4,3-b]pyridin-5-yl)amino)-4-chloro-3-(2-chloroethoxy)-5,6,7,8-tetrahydronaph thalene-2-carbonitrile], the half-maximal inhibitory concentration (IC50) lay within 1 to 500 nM.

Regarding `N#Cc1cc2c(c(Cl)c1OCCCl)CCCC2c1cccc2[nH]ncc12` (stereo not drawn) [HANT-193, 4-chloro-3-(2-chloroethoxy)-8-(1H-indazol-7-yl)-5,6,7,8-tetrahydronaphthalene-2-cyanide], the IC50 is 1 to 500 nM.

For `N#Cc1cc2c(c(Cl)c1OCCCl)CCCC2c1cccc2cn[nH]c12` (stereo not drawn) [HANT-194], the IC50 fell in the range of 1 to 500 nM.

For the compound `CCCOc1c(C#N)cc2c(c1Cl)CCCC2c1cnc2[nH]ncc2c1` (stereo not drawn) [HANT-196, 4-chloro-3-propoxy-8-(1H-pyrazolo[3,4-b]pyridin-5-yl)-5,6,7,8-tetrahydronaphthalene-2-carbo nitrile], the IC50 lay in the range of 1 to 500 nM.

On to `N#Cc1cc2c(c(Cl)c1OCCCl)CCCC2c1cn[nH]c1` (stereo not drawn) [HANT-200], for which the half-inhibitory concentration (IC50) lay in the range of 500 to 1000 nM.

`N#Cc1cc2c(c(Cl)c1OCCCl)CCCC2c1cnc2[nH]c(=O)ccc2c1` (stereo not drawn) [HANT-202]: the IC50 lay in the range of 1 to 500 nM.

`N#Cc1cc2c(c(Cl)c1OCCCl)CCCC2c1ccc(N)nc1` (stereo not drawn) [HANT-203]: the IC50 lay in the range of 1 to 500 nM.

For the compound `N#Cc1cc2c(c(Cl)c1OCCCl)CCC[C@@H]2c1cnc(N)nc1` [HANT-204A], the IC50 is above 2000 nM.

For the compound `N#Cc1cc2c(c(Cl)c1OCCCl)CCC[C@H]2c1cnc(N)nc1` [HANT-204B], the IC50 is 1 to 500 nM.

For the compound `CC(=O)Nc1ccc(C2CCCc3c2cc(C#N)c(OCCCl)c3Cl)cn1` (stereo not drawn) [HANT-205], the IC50 lay in the range of 1 to 500 nM.

With `CNC(=O)Oc1ccc(C2CCCc3c2cc(C#N)c(OCCCl)c3Cl)cc1` (stereo not drawn) [HANT-206, 4-(5-chloro-6-(2-chloroethoxy)-7-cyano-1,2,3,4-tetrahydronaphthalen-1-yl)phenyl methylcarbamate], the IC50 lay within 1 to 500 nM.

Turning to `N#Cc1cc2c(c(Cl)c1OCCCl)CCCC2c1cnc2[nH]c(=O)oc2c1` (stereo not drawn) [HANT-207, 4-chloro-3-(2-chloroethoxy)-8-(2-oxo-2,3-dihydrooxazolo[4,5-b]pyridin-6-yl)-5,6,7,8-tetrahydr onaphthalene-2-carbonitrile], the IC50 fell in the range of 500 to 1000 nM.

Consider `N#Cc1cc2c(c(Cl)c1OCCCl)CCCC2c1ccc2oc(=O)[nH]c2c1` (stereo not drawn) [HANT-208], for which the IC50 was 1 to 500 nM.

Take `N#Cc1cc2c(c(Cl)c1OCCCl)CCCC2NC(=O)C1CCCCC1` (stereo not drawn) [HANT-209]: the IC50 was in the range of 500 to 1000 nM.

`N#Cc1cc2c(c(Cl)c1OCCCl)CCCC2NC(=O)c1ccccc1` (stereo not drawn) [HANT-212]: the IC50 is 1 to 500 nM.

Regarding `N#Cc1cc2c(c(Cl)c1OCCCl)CCCC2NC(=O)c1cccnc1` (stereo not drawn) [HANT-213], the IC50 lay within 1000 to 2000 nM.

`N#Cc1cc2c(c(Cl)c1OCCCl)CCCC2NC(=O)c1ccncc1` (stereo not drawn) [HANT-214]: the IC50 lay in the range of 500 to 1000 nM.

For the compound `N#Cc1cc2c(c(Cl)c1OCCCl)CCCC2NC(=O)c1ccccn1` (stereo not drawn) [HANT-215], the IC50 lay within 1 to 500 nM.

In the case of `N#Cc1cc2c(c(Cl)c1OCCCl)CCCC2c1cnc2[nH]nc(-c3ccncc3)c2c1` (stereo not drawn) [HANT-218, 4-chloro-3-(2-chloroethoxy)-8-(3-(pyridin-4-yl)-1H-pyrazolo[3,4-b]pyridin-5-yl)-5,6,7,8-tetrah ydronaphthalene-2-carbonitrile], the IC50 lay in the range of 1 to 500 nM.

In the case of `N#Cc1cc2c(c(Cl)c1OCCCl)CCCC2c1cnc2[nH]nc(C3CCOCC3)c2c1` (stereo not drawn) [HANT-220, 4-chloro-3-(2-chloroethoxy)-8-(3-(tetrahydro-2H-pyran-4-yl)-1H-pyrazolo[3,4-b]pyridin-5-yl)-5,6,7,8-tetrahydronaphthalene-2-cyanide], the IC50 is above 2000 nM.

For `N#Cc1cc2c(c(Cl)c1OCCCl)CCCC2Nc1cc2cn[nH]c2cn1` (stereo not drawn) [HANT-224], the IC50 lay within 1 to 500 nM.

With `N#Cc1cc2c(c(Cl)c1OCCCl)CCCC2Nc1ccc2[nH]ncc2c1` (stereo not drawn) [HANT-225, 8-((1H-indazol-5-yl)amino)-4-chloro-3-(2-chloroethoxy)-5,6,7,8-tetrahydronaphthalene-2-carb onitrile], the IC50 fell in the range of 1 to 500 nM.

Regarding `N#Cc1cc2c(c(Cl)c1OCCCl)CCCC2Nc1ccccc1` (stereo not drawn) [HANT-226], the IC50 lay within 1 to 500 nM.

Regarding `N#Cc1cc2c(c(Cl)c1OCCCl)CCCC2Nc1cccnc1` (stereo not drawn) [HANT-227], the IC50 lay in the range of 1 to 500 nM.

Take `N#Cc1cc2c(c(Cl)c1OCCCl)CCCC2Nc1ccncc1` (stereo not drawn) [HANT-228]: the concentration for half-maximal inhibition (IC50) was above 2000 nM.

Take `N#Cc1cc2c(c(Cl)c1OCCCl)CCCC2Nc1ccc2cn[nH]c2c1` (stereo not drawn) [HANT-229, 8-((1H-indazol-6-yl)amino)-4-chloro-3-(2-chloroethoxy)-5,6,7,8-tetrahydronaphthalene-2-carb onitrile]: the IC50 fell in the range of 1 to 500 nM.

Consider `N#Cc1cc2c(c(Cl)c1OCCCl)CCCC2NC(=O)c1ccc(Cl)cc1` (stereo not drawn) [HANT-232], for which the IC50 fell in the range of 1 to 500 nM.

Consider `N#Cc1cc2c(c(Cl)c1OCCCl)CCCC2NC(=O)c1cccc(Cl)c1` (stereo not drawn) [HANT-233], for which the IC50 is 1 to 500 nM.

Turning to `N#Cc1ccc(C(=O)NC2CCCc3c2cc(C#N)c(OCCCl)c3Cl)cc1` (stereo not drawn) [HANT-234], the IC50 was in the range of 1 to 500 nM.

Turning to `COc1ccc(C(=O)NC2CCCc3c2cc(C#N)c(OCCCl)c3Cl)cc1` (stereo not drawn) [HANT-235], the IC50 lay in the range of 500 to 1000 nM.

For the compound `N#Cc1cc2c(c(Cl)c1OCCCl)CCCC2Nc1cn[nH]c1` (stereo not drawn) [HANT-239, 8-((1H-pyrazol-4-yl)amino)-4-chloro-3-(2-chloroethoxy)-5,6,7,8-tetrahydronaphthalene-2-carb onitrile], the IC50 lay within 500 to 1000 nM.

Regarding `N#Cc1cc2c(c(Cl)c1OCCCl)CCCC2Nc1ccc(N)nc1` (stereo not drawn) [HANT-240, 8-((6-aminopyridin-3-yl)amino)-4-chloro-3-(2-chloroethoxy)-5,6,7,8-tetrahydronaphthalene-2-c arbonitrile], the IC50 was in the range of 500 to 1000 nM.

`COc1ccc(NC2CCCc3c2cc(C#N)c(OCCCl)c3Cl)cn1` (stereo not drawn) [HANT-241]: the IC50 lay within 1 to 500 nM.

As for `N#Cc1cc2c(c(Cl)c1OCCCl)CCCC2c1cncnc1` (stereo not drawn) [HANT-246], the IC50 lay in the range of 1 to 500 nM.

Usually IC50 stands for the midpoint of a concentration-inhibition curve.
